Test results published in patent publication US11426422B2, “SHP2 inhibitors and methods of use thereof” (Research Development Foundation, priority 2018, dated 2022).
pKd: −log10 of the molar value. Where no end group is shown, it is not given here. [ ]: non-standard residue; d: D form. pY = N[C@@H](Cc1ccc(OP(=O)(O)O)cc1)C(=O)O

Columns and labels:
[1] = test system: HepG2 cells expressing IR-GFP WT; experiment: insulin-activated IR endocytosis in HepG2 cells expressing IR-GFP WT (immunofluorescence, PM/IC ratio); format: cell-based; details: serum starved 14 h, inhibitor 2 h, then 100 nM insulin 20 min; BMS536924 2 μM, U0126 40 μM, SHP099 40 μM, AKT inhibitor VIII 5 μM, BI2536 200 nM, Reversine 1 μM
Description: (FIG. 2A) HepG2 cells expressing IR-GFP WT were starved, treated with the indicated inhibitors for 2 h, treated without or with 100 nM insulin for 20 min, and stained with anti-GFP (IR; green) and DAPI (blue). […] Quantification of the ratios of PM and IC IR-GFP signals of cells was shown (mean±SD; *p<0.0001).
To test whether the MAPK pathway and SHP2 might regulate the IRS1/2-AP2 interaction and IR endocytosis through modulating IRS1/2 phosphorylation patterns, the effects of inhibiting SHP2 or the MAPK pathway on insulin-activated IR endocytosis were examined (FIG. 2A and FIG. 7A).
For testing the effects of kinase inhibitors on IR endocytosis, the cells were serum starved for 14 h and inhibitors were added at 2 h before insulin treatment.

[2] = test system: HepG2 cells expressing IR-GFP mutants; experiment: cellular localization of IR-GFP mutants in HepG2 cells after inhibitors; format: cell-based; details: starved 14 h, inhibitors 4 h, no insulin; for PM levels of Class II IR mutants: R1020Q, V1054M, A1075D, V1086E, I1143T
From the text: FIGS. 4A-E. Dysregulation of IR endocytosis as a potential contributing factor to human insulin resistance syndromes. (FIG. 4A) Representative images of liver specimens from human non-diabetes and diabetes patients stained with DAPI (blue) and anti-IR (red) and anti-ZO-1 (green) antibodies. Scale bars, 40 μm. (FIG. 4B) Quantification of the percentage of cells with positive IR PM signals in liver specimens in FIG. 4A (mean±SD; *p<0.0001). (FIG. 4C) HepG2 cells stably expressing IR-GFP R1020Q, V1054M, A1075D, V1086E, or I1143T were serum starved and stained with anti-GFP and anti-RAB7 antibodies. Scale bar, 5 μm. (FIG. 4D) Quantification of the ratios of PM and IC IR-GFP signals of cells in FIG. 4C (mean±SD; *p<0.0001). (FIG. 4E) Targeting feedback regulation of IR endocytosis for diabetes treatment. Left panel depicts the feedback regulation of IR endocytosis by ERK1/2 and SHP2 during unperturbed insulin signaling.
FIGS. 9A-D. Characterization of IR mutations found in human patients. (FIG. 9A) HepG2 cells expressing IR-GFP Class I mutants (P997T, V1012M, A1055V, K1095E, R1119Q, H1157R, R1191Q, Y1361C, or R1378Q) were starved for 14 h, treated with the indicated inhibitors for 4 h, and stained with anti-GFP (IR; green) and DAPI (blue). Scale bar, 5 m. (FIG. 9B) HepG2 cells expressing IR-GFP Class II mutants (R1020Q, V1054M, A1075D, V1086E, or I1143T) were analyzed as described in FIG. 9A. (FIG. 9C) HepG2 cells expressing IR-GFP Class III mutants (A1162E or W1220L) were analyzed as described in A. (FIG. 9D) HepG2 cells expressing IR-GFP WT, R1020Q, or V1054M were serum starved for 14 h and treated with DMSO or 80 μM Dynasore for 4 h. Cell lysates were blotted with the indicated antibodies.
Mutations of IR are known to cause inherited severe insulin resistance syndromes, but the mechanisms by which these mutations affect IR function have not been systematically explored. HepG2 cell lines were generated which stably expressed IR mutants fused to GFP, and the subcellular localization of these IR-GFP proteins was examined (FIGS. 9A-C and Table 1).
There were three distinct classes of IR mutants based on their subcellular localization in the unstimulated state. Class I mutants localized to the PM. […] Thus, certain IR mutations found in human insulin resistance syndromes perturbs IR kinase regulation and causes premature IR endocytosis.
Cellular localization of IR mutants was examined after inhibiting the SHP2 or MAPK pathways (FIGS. 4C-D, and FIGS. 9A-C).
Indirect immunofluorescence microscopy was performed on cells grown on coverslips and fixed in cold methanol at −20° C. for 10 min. The fixed cells were incubated with PBS for 30 min and 3% BSA in 0.1% PBST for 1 h, and then treated with diluted antibodies in 0.3% BSA in 0.1% PBST at 4° C. overnight. After being washed, cells were incubated with fluorescent secondary antibodies and mounted on microscope slides in ProLong Gold Antifade reagent with DAPI (Invitrogen). Images of fixed cells were acquired as a series of 0.4 m stacks with a DeltaVision® system (Applied Precision®, Issaquah, Wash.). Raw images were deconvolved using the iterative algorithm implemented in the softWoRx® software (Applied Precision®, Issaquash, Wash.). The central section of a 0.4 μm z-stack containing 3 contiguous focal planes was used for quantification. The cell edges were defined with Image J. The whole cell signal intensity (WC) and intracellular signal intensity (IC) were measured. The plasma membrane signal intensity (PM) was calculated by subtracting IC from WC. Identical exposure times and magnifications were used for all comparative analyses.

AP2M1 (residues 160-435) [3] = biological target: T1, AP2M1 (residues 160-435) (Homo sapiens, UniProt Q96CW1); experiment: in vitro peptide pull-down of AP2M1 with IRS1 peptides; format: binding; details: peptide beads pull-down, SDS-PAGE, Coomassie
T1 construct: The AP2M1 fragment (residues 160-435) was cloned into a modified pET28a; His6 (N, cleaved yes); made in house; host or cells: E. coli BL21(DE3)
T1 sequence (Q96CW1 160-435): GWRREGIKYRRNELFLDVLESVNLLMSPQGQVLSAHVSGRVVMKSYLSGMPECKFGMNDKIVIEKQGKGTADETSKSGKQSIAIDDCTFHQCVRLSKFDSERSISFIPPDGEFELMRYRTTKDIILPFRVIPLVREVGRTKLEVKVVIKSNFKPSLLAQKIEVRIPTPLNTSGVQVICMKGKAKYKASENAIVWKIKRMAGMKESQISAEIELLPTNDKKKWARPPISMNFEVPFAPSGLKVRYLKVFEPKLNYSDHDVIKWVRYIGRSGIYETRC
Description: FIGS. 2A-I. The MAPK pathway and SHP2 promote insulin-activated IR endocytosis. (FIG. 2A) HepG2 cells expressing IR-GFP WT were starved, treated with the indicated inhibitors for 2 h, treated without or with 100 nM insulin for 20 min, and stained with anti-GFP (IR; green) and DAPI (blue). See also FIG. 7A for representative images. Quantification of the ratios of PM and IC IR-GFP signals of cells was shown (mean±SD; *p<0.0001). (FIG. 2B) Binding of IRS1 peptides to AP2M1 (residues 160-435). Input and proteins bound to IRS1-peptide beads were analyzed by SDS-PAGE and stained with Coomassie (CBB). The relative band intensities are shown below (mean±SD; n=4 independent experiments). (FIG. 2C) ITC analysis of binding between IRS1 peptides and AP2M1 (residue 160-435), with the Kd indicated. (FIG. 2D) The IRS1 peptides were incubated with active SHP2 for the indicated durations, spotted onto membranes, and detected with the anti-pY612-IRS1 antibody. (FIG. 2E) Quantification of the relative SHP2 activity in FIG. 2D (mean±SD; n=4 independent experiments; *p<0.0001). (FIG. 2F) Model of the regulation of insulin-activated IR endocytosis by a phosphorylation switch on IRS1/2. Insulin-bound IR phosphorylates itself and IRS1/2, and activates the PI3K-AKT and MAPK pathways. SHP2 acts upstream of RAS-RAF and promotes the activation of MAPK pathway. p31^comet binds to the IR-bound MAD2 and blocks IR-AP2 association to prevent premature IR endocytosis. In feedback regulation, activated ERK1/2 phosphorylate S616 and other sites on IRS1. […]
(§1) For GST pull-down assays of in vitro translated (IVT) IRS1 proteins, beads bound to GST-AP2M1 or GST were incubated with IVT products diluted in the cell lysis buffer at 4° C. for 2 h. After incubation and washing, proteins bound to beads were eluted with the SDS loading buffer, resolved with SDS-PAGE, and detected with Coomassie staining or immunoblotting with the appropriate antibodies. […]

AP2M1 (residues 160-435) [4] = biological target: T1, AP2M1 (residues 160-435); experiment: isothermal titration calorimetry (ITC) of IRS1 peptides with AP2M1; format: binding; details: 20° C., HEPES buffer pH 7.5
From the text: The unphosphorylated and phosphorylated IRS1 peptides containing 612YMPMS (SEQ ID NO:7) FIG. 7B) were chemically synthesized and used for in vitro pull-down assays to examine their binding to AP2M1 (FIG. 2B). […] Thus, phosphorylation of IRS1 by ERK1/2 enhances IRS1 binding to AP2M1.
The AP2M1 fragment (residues 160-435) was cloned into a modified pET28a that introduced an N-terminal His6-tag followed by a thrombin cleavage site. The plasmid was transformed into BL21(DE3) E. coli cells. Protein expression was induced by 0.2 mM IPTG at 20° C. overnight. The harvested pellets were lysed in the lysis buffer II (20 mM Tris-HCl, pH 7.5, 500 mM NaCl, 20 mM Imidazole, 1 mM PMSF). After sonication, lysates were cleared by centrifugation at 4° C. The supernatants were filtered by […] filter and incubated with pre-equilibrated Ni2+-NTA beads (Qiagen®). […]
as §1

| Compound | insulin-activated IR endocytosis (ratio of PM and IC IR-GFP signals) [1] | PM levels of Class II IR mutants [2] | further results |
| --- | --- | --- | --- |
| O=c1[nH]c2ccccc2n1C1CCN(Cc2ccc(-c3nc4cc5[nH]cnc5cc4nc3-c3ccccc3)cc2)CC1 [AKTi, VIII] | did not affect IR endocytosis |  |  |
| Cc1cc(N2CCOCC2)cc2[nH]c(-c3c(NC[C@@H](O)c4cccc(Cl)c4)cc[nH]c3=O)nc12 [BMS536924] | blocked IR endocytosis | restored Class II IR mutants at the PM |  |
| N#CC(=C(/N)Sc1ccccc1N)/C(C#N)=C(\N)Sc1ccccc1N [Compound U0126] | blocked IR endocytosis | significantly enhanced the PM levels of Class II IR mutants | PM levels of Class I and III IR mutants [2]: not those of Class I and III IR mutants |
| c1nc2nc(Nc3ccc(N4CCOCC4)cc3)nc(NC3CCCCC3)c2[nH]1 [Reversine] | did not appreciably inhibit IR endocytosis |  |  |
| O=C(N/N=C/c1ccc(O)c(O)c1)c1cc2ccccc2cc1O [dynasore] |  | elevated the IR signal of Class II mutants at the PM |  |
| AMPAS: mutant IRS1 peptide CHTDDGAMPASPGVA (SEQ ID NO:10), Y612 and M615 replaced by alanine |  |  | binding to AP2M1 (AP2M1 (residues 160-435) [3]): did not |
| CHTDDGYMPMSPGVA [YMPMS] |  |  | pKd (AP2M1 (residues 160-435) [4]): 5.69 |
| pYMPMS: singly phosphorylated IRS1 peptide CHTDDGpYMPMSPGVA (SEQ ID NO:12) (CHTDDG[pY]MPMSPGVA) |  |  | binding to AP2M1 (AP2M1 (residues 160-435) [3]): abolished AP2M1 binding |
